In patent publication US9072778B2, “Treatment regimen for N-MYC, c-MYC, and L-MYC amplified and overexpressed tumors” (UNIVERSITY OF HAWAII, priority 2005, dated 2015):

Legend:
[1] = tested on: NMB-7 cells; experiment: Polyamine pool analysis in inhibitor-treated NMB-7 cells; type: cell-based, human; conditions: DFMO = 5 mM, SAM486A = 10 μM, Spd = 10 μM
Method: Combined inhibition of both enzymes decreased polyamine pools to various degrees, and exogenous supplementation of Spd (10 μM) to cell cultures led to a substantial increase in Spd. […] In untreated control cells, the levels of Put and Spd decreased during exponential cell growth and proliferation (day 0 to day 3), which is also consistent with a decrease in ODC and AdoMetDC enzyme activities (FIGS. 3d and 3e). Spm levels decreased in untreated LAN-1 cells and remained the same in NMB-7 cells (Table 1).
(§1) Human NB cell lines were provided by Dr. Robert Seeger (LAN-1; University of California, Los Angeles, Calif.), Dr. Nai-Kong Cheung (NMB-7; Memorial Sloan-Kettering Cancer Center, NY), and the American Type Culture Collection (SK-N-SH; ATCC, Manassas, Va.). Cells were maintained in RPMI 1640 (Biosource, Rockeville, Md.) containing 10% heat-inactivated fetal bovine serum (FBS) (Invitrogen, Carlsbad, Calif.), penicillin (100 IU/ml) and streptomycin (100 μg/ml). If cells were treated with exogenous Spd, 1 mM of aminoguanidine was included as an inhibitor of serum polyamine oxidation. […] For growth and proliferation inhibition, polyamine pool, and cell cycle studies, 10 μM Spd was added together with inhibitors, and cells were assayed on days 2 and/or 3.
Intracellular polyamines were extracted from cell pellets by a method known in the art. In brief, cells were washed and centrifuged. After sonication and centrifugation, 250 μl of supernatant, 100 μl of saturated sodium carbonate, and 300 μl of 25 mg/ml dansyl chloride (5-dimethylamino-naphthalene-1-sulfonyl chloride) (Fluka, Switzerland) were mixed and analyzed via reverse phase HPLC using a C18 reverse-phase analytical column (Waters, Milford, Mass.). The effluent from the column was monitored at 510 nm (excitation at 330 nm). Polyamine levels were determined using appropriate standards. The samples were normalized in 0.2 N sodium hydroxide and the amount of total protein per sample was measured using the Bradford assay (70). Polyamine levels are expressed as nmol per mg of total cellular protein.

[2] = tested on: MYCN; experiment: Western blot of MYCN in inhibitor-treated NB cells; type: cell-based, human; conditions: LAN-1 and NMB-7; 5 mM DFMO, 10 μM SAM486A (FIG. 7c)
Excerpt: It has also been shown that MYCN can regulate p27^Kip1 in NB cells by targeting p27^Kip1 to the proteasome (Nakamura et al., (2003) Cell Death Differ, 10, 230-9, which is incorporated herein by reference in its entirety), and it is therefore possible that the observed increase in p27^Kip1 is in response to a decrease in MYCN. […] The regulation of ODC by MYCN has been previously proposed (Ben-Yosef et al., (1998) Oncogene, 17, 165-71; Lu et al., (2003) Cancer Lett, 197, 125-30; Lutz et al., (1996) Oncogene, 13, 803-12, each of which is incorporated herein by reference in its entirety), but has not been definitively confirmed. The precise mechanism by which polyamines regulate MYCN in NB cells remains to be further clarified.
To further investigate the mechanism that regulates G1 arrest in LAN-1 and NMB-7 cells, and to define the changes in associated protein responses, the cell cycle-related proteins p21^Waf1/Cip1, p27^Kip1, p53, Rb, and MYCN in NB cell lysates were studied. Cells were analyzed on days 1, 2, and 3. Equal amounts of total protein were loaded in all experiments. Proteins were scanned and the ratio of hypophosphorylated Rb (pRb) (lower band):hyperphosphorylated Rb (ppRb) (upper band) was calculated (b). MYCN bands were quantified and normalized relative to β-actin. Values are presented as percentage (%) of controls of day 1, 2 or 3. (c). […]

[3] = molecular target: T1, ODC (Homo sapiens, UniProt P11926); experiment: ODC enzyme activity in lysates of inhibitor-treated NB cells; type: cell-based; conditions: DFMO = 5 mM, SAM486A = 10 μM, mean ± SD
T1 construct: enzyme activities were measured in cell lysates; endogenous in cells
T1 sequence (P11926 1-461): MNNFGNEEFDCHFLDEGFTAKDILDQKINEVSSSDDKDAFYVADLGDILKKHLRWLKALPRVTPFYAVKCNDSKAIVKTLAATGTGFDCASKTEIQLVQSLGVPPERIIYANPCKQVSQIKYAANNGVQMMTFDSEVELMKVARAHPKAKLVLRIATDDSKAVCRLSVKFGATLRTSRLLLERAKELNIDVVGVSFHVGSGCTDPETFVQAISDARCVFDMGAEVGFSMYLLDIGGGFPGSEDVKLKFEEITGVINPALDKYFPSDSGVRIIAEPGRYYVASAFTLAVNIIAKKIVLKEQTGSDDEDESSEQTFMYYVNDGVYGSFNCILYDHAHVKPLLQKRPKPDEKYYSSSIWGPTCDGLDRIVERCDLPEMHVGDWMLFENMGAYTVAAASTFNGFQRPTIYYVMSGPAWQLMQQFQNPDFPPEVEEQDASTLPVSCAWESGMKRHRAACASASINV
Method: as §1
ODC and AdoMetDC enzyme activities were determined using a standard assay known in the art. In brief, NB cells were washed twice with ice-cold PBS and harvested in 50 mM sodium phosphate buffer (pH 7.2), 0.1 mM EDTA, 2.5 mM DTT, supplemented with 1× protease inhibitor cocktail (Roche Molecular Biochemicals, Indianapolis, Ind.). For the measurement of AdoMetDC activity, cells were harvested in the above buffer supplemented with 2.5 mM Put. Cells were lysed by three freeze/thaw cycles and cell lysates were prepared by centrifugation for 20 minutes at 14,000 rpm and 4° C. ODC activity was measured in a reaction mixture that contained 20 μM L-[1-^14C]ornithine (47.70 mCi/mmol; NEN Life Science Products, Boston, Mass.). AdoMetDC activity was assayed in a reaction mixture that contained 8.2 μM S-adenosyl-L-[carboxy-^14C]methionine (58.0-61.0 mCi/mmol; Amersham Biosciences, Piscataway, N.J.) and 140.1 μM cold S-adenosylmethionine. […] Untreated or SAM486A-treated LAN-1 extracts were assayed for AdoMetDC activity after multiple rounds of sequential dilution with harvest buffer followed by concentration of the extract (Centricon YM-10, Millipore Corporation, Bedford, Mass.) to remove the inhibitor.

Structure (SMILES)	Polyamine pools PUT ([1]; NMB-7, Day 2) [NMOL/MG TOTAL PROTEIN]	Polyamine pools SPD ([1]; NMB-7, Day 2) [NMOL/MG TOTAL PROTEIN]	Polyamine pools SPM ([1]; NMB-7, Day 2) [NMOL/MG TOTAL PROTEIN]	Polyamine pools PUT ([1]; NMB-7, Day 3) [NMOL/MG TOTAL PROTEIN]	Polyamine pools SPD ([1]; NMB-7, Day 3) [NMOL/MG TOTAL PROTEIN]	Polyamine pools SPM ([1]; NMB-7, Day 3) [NMOL/MG TOTAL PROTEIN]	MYCN protein [2]	Specific enzyme activity ODC ([3]; LAN-1, 2 days after treatment) [% OF CONTROL]	Specific enzyme activity ODC ([3]; NMB-7, 2 days after treatment) [% OF CONTROL]
NCCC[C@](N)(C(=O)O)C(F)F [DFMO, α-difluoromethylornithine]	0.1	1.9	9.3	0.0	1.4	8.6	strong downregulation	26 ± 2	25 ± 8
N=C(N)c1cccc2c1CC/C2=N\N=C(N)N [SAM486A, 4-amidinoindan-1-one 2′-amidinohydrazone]	69.6	5.6	3.9	259.5	5.5	3.6	almost no effect	240 ± 27	251 ± 42
